Where two headings read alike, the source gives them in different places. Where no end group is shown, it is not given here.
Key:
Assay type in all cases: cell-based
hsTRPA1 [1] = molecular target: T1, hsTRPA1 (Homo sapiens, UniProt O75762); assay: Agonist activation of hsTRPA1-expressing HEK cells (GCaMP6f); details: NMM 100 μM; AITC 33 μM; dTom control cells for comparison
T1 construct: HEK cells transfected with either full-length hsTRPA1 or channels containing deletions; porcine teschovirus-1 2A self-cleaving peptide (p2A) linking the channel to dTomato in a bicistronic vector (cleaved yes); host or cells: HEK 293T cells expressing human alpha-v beta-3 integrin and stably expressing GCaMP6f

[2] = system: mouse primary cortical neurons; assay: GCaMP6f calcium imaging of primary cortical neurons under ultrasound or AITC
hsTRPA1 [3] = molecular target: T1, hsTRPA1; assay: Effect of agents on ultrasound-evoked GCaMP6f response of hsTRPA1-expressing HEK cells
hsTRPA1 [4] = molecular target: T1, hsTRPA1
hsTRPA1 [5] = molecular target: T1, hsTRPA1; assay: Effect of agents on AITC-triggered GCaMP6f response of hsTRPA1-expressing HEK cells; details: AITC 33 μM; after incubation with agent; versus vehicle
mouse-Piezol = mouse-Piezol (Mus musculus, UniProt E2JF22); details: yoda-1 10 μM
[6] = system: Human Embryonic Kidney 293T (HEK) cells; assay: Ultrasound-evoked GCaMP6f calcium response of HEK cells transfected with candidate channels (screen and TRPA1 variants); details: for Response to ultrasound stimulation (cells activated, GCaMP6f): transfected GCaMP6f HEK cells, 6.91 MHz, screen at 100 msecs, 1.5 MPa
[7] = system: Human Embryonic Kidney 293T (HEK) cells; assay: AITC (chemical agonist) GCaMP6f response of HEK cells transfected with hsTRPA1 variants; details: AITC 33 μM
[8] = control neurons without hsTRPA1
[9] = A784168 2 μM, BAPTA 30 μM, versus vehicle
[10] = agent added 45 minutes before, HC-030031 40 μM, MCD 5 mM, nocodazole 5 μM, latrunculin A 1 μM, paclitaxel 600 nM, versus vehicle

T1 sequence (O75762 whole entry): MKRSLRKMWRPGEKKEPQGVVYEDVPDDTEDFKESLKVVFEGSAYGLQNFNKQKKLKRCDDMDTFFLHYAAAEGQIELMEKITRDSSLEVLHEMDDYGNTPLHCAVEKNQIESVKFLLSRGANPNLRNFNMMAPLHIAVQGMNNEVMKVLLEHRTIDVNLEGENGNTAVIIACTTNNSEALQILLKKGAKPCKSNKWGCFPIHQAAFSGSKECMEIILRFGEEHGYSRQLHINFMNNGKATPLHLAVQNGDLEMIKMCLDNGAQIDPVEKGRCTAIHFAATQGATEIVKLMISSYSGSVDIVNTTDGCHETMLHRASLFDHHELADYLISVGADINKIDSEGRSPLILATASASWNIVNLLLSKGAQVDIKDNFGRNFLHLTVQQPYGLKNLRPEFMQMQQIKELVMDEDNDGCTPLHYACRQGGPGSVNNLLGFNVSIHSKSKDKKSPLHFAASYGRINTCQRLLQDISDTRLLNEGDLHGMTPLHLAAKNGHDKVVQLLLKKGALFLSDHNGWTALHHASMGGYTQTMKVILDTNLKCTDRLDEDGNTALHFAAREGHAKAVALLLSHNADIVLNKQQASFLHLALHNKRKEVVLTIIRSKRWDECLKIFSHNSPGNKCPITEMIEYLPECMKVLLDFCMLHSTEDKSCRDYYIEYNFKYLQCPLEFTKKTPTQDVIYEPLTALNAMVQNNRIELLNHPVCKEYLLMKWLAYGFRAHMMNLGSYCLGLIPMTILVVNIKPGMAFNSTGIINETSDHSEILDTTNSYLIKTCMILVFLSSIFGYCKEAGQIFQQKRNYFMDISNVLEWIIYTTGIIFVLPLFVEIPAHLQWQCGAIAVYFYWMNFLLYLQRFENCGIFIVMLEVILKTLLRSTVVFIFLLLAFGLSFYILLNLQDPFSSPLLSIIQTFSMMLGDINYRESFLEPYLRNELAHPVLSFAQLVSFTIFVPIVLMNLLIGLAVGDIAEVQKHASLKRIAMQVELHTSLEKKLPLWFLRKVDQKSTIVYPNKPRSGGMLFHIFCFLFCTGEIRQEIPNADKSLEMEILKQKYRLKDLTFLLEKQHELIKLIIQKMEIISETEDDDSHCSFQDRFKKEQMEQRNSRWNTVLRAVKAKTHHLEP
Chain of mouse-Piezol (E2JF22 whole entry): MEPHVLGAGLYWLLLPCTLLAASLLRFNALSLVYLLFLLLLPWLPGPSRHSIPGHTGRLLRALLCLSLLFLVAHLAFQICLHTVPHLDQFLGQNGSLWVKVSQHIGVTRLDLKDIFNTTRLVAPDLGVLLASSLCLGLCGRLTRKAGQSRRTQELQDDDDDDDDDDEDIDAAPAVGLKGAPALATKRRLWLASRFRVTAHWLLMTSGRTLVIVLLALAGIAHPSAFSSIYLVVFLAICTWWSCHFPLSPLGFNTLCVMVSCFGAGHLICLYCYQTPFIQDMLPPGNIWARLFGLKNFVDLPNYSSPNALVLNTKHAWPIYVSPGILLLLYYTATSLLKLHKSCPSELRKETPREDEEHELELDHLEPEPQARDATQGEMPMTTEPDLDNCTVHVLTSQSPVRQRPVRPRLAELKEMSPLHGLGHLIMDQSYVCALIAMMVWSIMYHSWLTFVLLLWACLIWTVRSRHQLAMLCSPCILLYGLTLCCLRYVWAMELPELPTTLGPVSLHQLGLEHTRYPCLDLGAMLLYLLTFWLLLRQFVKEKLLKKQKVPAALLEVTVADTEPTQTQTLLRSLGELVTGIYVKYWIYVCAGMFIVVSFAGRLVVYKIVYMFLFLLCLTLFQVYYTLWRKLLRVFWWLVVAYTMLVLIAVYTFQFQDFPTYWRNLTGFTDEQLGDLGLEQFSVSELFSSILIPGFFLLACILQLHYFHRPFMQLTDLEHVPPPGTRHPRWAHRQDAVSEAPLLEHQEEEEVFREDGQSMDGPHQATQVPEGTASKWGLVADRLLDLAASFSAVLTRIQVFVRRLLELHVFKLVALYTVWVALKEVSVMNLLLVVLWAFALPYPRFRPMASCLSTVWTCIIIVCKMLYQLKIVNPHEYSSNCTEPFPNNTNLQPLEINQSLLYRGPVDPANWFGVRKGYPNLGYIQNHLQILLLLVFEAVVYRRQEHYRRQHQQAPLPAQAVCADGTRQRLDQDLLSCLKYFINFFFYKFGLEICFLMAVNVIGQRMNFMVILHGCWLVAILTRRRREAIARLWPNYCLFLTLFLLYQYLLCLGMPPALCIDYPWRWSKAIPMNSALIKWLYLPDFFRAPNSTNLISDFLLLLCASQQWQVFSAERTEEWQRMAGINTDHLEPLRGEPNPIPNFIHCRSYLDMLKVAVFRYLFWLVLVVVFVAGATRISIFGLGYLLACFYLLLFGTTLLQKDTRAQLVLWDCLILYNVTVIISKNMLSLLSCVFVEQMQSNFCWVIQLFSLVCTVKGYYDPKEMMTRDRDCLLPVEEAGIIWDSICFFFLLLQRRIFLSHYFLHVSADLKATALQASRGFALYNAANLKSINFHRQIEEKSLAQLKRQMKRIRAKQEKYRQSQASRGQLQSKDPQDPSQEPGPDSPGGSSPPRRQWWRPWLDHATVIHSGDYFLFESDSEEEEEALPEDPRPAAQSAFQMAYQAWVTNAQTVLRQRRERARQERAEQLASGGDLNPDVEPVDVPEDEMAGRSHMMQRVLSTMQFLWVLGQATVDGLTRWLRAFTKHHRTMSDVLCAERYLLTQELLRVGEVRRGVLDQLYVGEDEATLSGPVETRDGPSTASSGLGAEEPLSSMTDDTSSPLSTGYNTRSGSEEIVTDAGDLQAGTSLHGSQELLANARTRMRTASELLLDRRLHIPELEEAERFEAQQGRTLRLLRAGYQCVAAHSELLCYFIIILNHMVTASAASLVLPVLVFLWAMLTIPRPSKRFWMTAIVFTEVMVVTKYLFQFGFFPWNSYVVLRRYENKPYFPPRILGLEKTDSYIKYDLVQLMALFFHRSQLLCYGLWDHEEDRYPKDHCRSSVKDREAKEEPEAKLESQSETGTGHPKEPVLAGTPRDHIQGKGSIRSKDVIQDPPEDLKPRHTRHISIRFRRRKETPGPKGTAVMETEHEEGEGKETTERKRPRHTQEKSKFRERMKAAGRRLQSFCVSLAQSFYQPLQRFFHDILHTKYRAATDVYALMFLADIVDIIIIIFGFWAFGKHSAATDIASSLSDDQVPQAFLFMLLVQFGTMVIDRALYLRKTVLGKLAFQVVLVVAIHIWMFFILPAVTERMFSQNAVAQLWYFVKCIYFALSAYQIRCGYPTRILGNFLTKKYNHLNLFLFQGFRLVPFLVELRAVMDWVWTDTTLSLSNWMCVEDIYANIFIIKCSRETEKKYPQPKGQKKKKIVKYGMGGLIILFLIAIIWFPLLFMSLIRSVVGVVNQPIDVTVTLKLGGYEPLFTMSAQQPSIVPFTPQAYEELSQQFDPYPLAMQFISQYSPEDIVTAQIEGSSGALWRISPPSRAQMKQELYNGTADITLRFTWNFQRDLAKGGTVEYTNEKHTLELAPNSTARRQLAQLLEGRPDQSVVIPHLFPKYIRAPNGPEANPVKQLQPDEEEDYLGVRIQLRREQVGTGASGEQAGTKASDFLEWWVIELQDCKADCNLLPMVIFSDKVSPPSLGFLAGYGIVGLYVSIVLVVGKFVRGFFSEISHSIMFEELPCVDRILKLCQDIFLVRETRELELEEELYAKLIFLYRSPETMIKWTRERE

## C=CCN=C=S [AITC, allyl isothiocyanate]
hsTRPA1 [1]
  Activation of TRPA1-expressing HEK cells by agonist (GCaMP6f): specifically activated TRPA1-expressing HEK cells
[2]; [8]
  Response of Cre-only control neurons to agonist: did not respond

## O=C(O)CN(CC(=O)O)c1ccccc1OCCOc1ccccc1N(CC(=O)O)CC(=O)O [BAPTA]
[2]; [9]
  Effect on ultrasound responses of hsTRPA1-expressing neurons (GCaMP6f): blocked neuronal responses to ultrasound

## CC(C)c1ccc(NC(=O)Cn2cnc3c2c(=O)n(C)c(=O)n3C)cc1 [HC-030331]
hsTRPA1 [3]
  Effect on ultrasound responses of hsTRPA1-expressing HEK cells (GCaMP6f peak amplitude): inhibited
hsTRPA1 [4]
  Effect on ultrasound-triggered membrane events (mean peak amplitude): attenuated
[2]; [9]
  Effect on ultrasound responses of hsTRPA1-expressing neurons (GCaMP6f): significantly attenuated
[2]; [8]
  Effect on ultrasound-evoked activity of control (Cre) neurons: without affecting

## CN1C(=O)C=CC1=O [NMM, N-methylmaleimide]
hsTRPA1 [1]
  Activation of TRPA1-expressing HEK cells by agonist (GCaMP6f): specifically activated TRPA1-expressing HEK cells

## CC(=O)O[C@H]1C(=O)[C@@]2(C)[C@H]([C@H](OC(=O)c3ccccc3)[C@]3(O)C[C@H](OC(=O)[C@H](O)[C@@H](NC(=O)c4ccccc4)c4ccccc4)C(C)=C1C3(C)C)[C@]1(OC(C)=O)CO[C@@H]1C[C@@H]2O [Taxol, paclitaxel]
hsTRPA1 [3]; [10]
  Effect on ultrasound responses of hsTRPA1-expressing HEK cells (GCaMP6f peak amplitude): no significant effect
hsTRPA1 [5]
  Effect on AITC-triggered responses of hsTRPA1-expressing HEK cells: significantly reduced

## C=C1[C@@H](C)[C@H]2[C@H](Cc3ccccc3)NC(=O)[C@]23[C@H](OC(C)=O)/C=C/[C@@](C)(O)C(=O)[C@@H](C)C/C=C/[C@H]3[C@@H]1O [cytochalasin D]
hsTRPA1 [3]; [10]
  Effect on ultrasound responses of hsTRPA1-expressing HEK cells (GCaMP6f peak amplitude): reduced the ultrasound responses
hsTRPA1 [5]
  Effect on AITC-triggered responses of hsTRPA1-expressing HEK cells: not to be altered

## C/C1=C\[C@H](C)C[C@H](C)OC(=O)C[C@H](c2ccc(O)cc2)NC(=O)[C@@H](Cc2c(Br)[nH]c3ccccc23)N(C)C(=O)[C@H](C)NC(=O)[C@@H](C)C1 [jasplakinolide]
hsTRPA1 [5]
  Effect on AITC-triggered responses of hsTRPA1-expressing HEK cells: significantly reduced

## C/C1=C/C(=O)O[C@@H]2C[C@@H](CC[C@H](C)/C=C\C=C\CC1)O[C@@](O)([C@@H]1CSC(=O)N1)C2 [latrunculin A]
hsTRPA1 [3]; [10]
  Effect on ultrasound responses of hsTRPA1-expressing HEK cells (GCaMP6f peak amplitude): reduced the ultrasound responses
hsTRPA1 [5]
  Effect on AITC-triggered responses of hsTRPA1-expressing HEK cells: significantly reduced

## COC(=O)Nc1nc2ccc(C(=O)c3cccs3)cc2[nH]1 [nocodazole]
hsTRPA1 [3]; [10]
  Effect on ultrasound responses of hsTRPA1-expressing HEK cells (GCaMP6f peak amplitude): no significant effect
hsTRPA1 [5]
  Effect on AITC-triggered responses of hsTRPA1-expressing HEK cells: not to be altered

## NC1=N[C@H](O)[C@H]2[C@H]3O[C@]4(O)O[C@@H]([C@@H](O)[C@@]2(N1)[C@@H]4O)[C@]3(O)CO [tetrodotoxin]
[2]
  Effect on ultrasound responses of hsTRPA1-expressing neurons (GCaMP6f): partially blocked
  Effect on ultrasound-evoked activity of control (Cre) neurons: completely abolishing responses

## Clc1cccc(Cl)c1CSc1nnc(-c2cnccn2)s1 [yoda-1]
mouse-Piezol
  Response of HEK cells expressing mouse Piezo1 to compound: respond

## GsMTx-4-4: GsMTx-4, applied to Piezo1- and TRPV1-expressing HEK cells (GCLEFWWKCNPNDDKCCRPKLKCSKLFKLCNFSF; ends and bridges not checked; cysteine pairing not given here; UniProt Q7YT39 47-80, looked up)
mouse-Piezol
  Response of HEK cells expressing mouse Piezo1 to compound: not

## methyl-beta-cyclodextrin [MCD]
hsTRPA1 [3]; [10]
  Effect on ultrasound responses of hsTRPA1-expressing HEK cells (GCaMP6f peak amplitude): attenuated hsTRPA1 responses to ultrasound
hsTRPA1 [5]
  Effect on AITC-triggered responses of hsTRPA1-expressing HEK cells: did not affect the response to AITC

## mouse homolog: mouse TRPA1 (Mus musculus; RefSeq NM_177781)
[6]
  Response to ultrasound stimulation (cells activated, GCaMP6f): only a third as responsive as hsTRPA1

## mouse-Piezol: mouse Piezo1 channel expressed in HEK cells
[6]
  Response to ultrasound stimulation (cells activated, GCaMP6f): not

B1: Y785S: hsTRPA1 mutant with TM2 CRAC domain disrupted, Tyr785 replaced with Ser (protein, UniProt O75762 1-1119, looked up, variant Y785S)
Transient receptor potential …: MKRSLRKMWRPGEKKEPQGVVYEDVPDDTEDFKESLKVVFEGSAYGLQNFNKQKKLKRCDDMDTFFLHYAAAEGQIELMEKITRDSSLEVLHEMDDYGNTPLHCAVEKNQIESVKFLLSRGANPNLRNFNMMAPLHIAVQGMNNEVMKVLLEHRTIDVNLEGENGNTAVIIACTTNNSEALQILLKKGAKPCKSNKWGCFPIHQAAFSGSKECMEIILRFGEEHGYSRQLHINFMNNGKATPLHLAVQNGDLEMIKMCLDNGAQIDPVEKGRCTAIHFAATQGATEIVKLMISSYSGSVDIVNTTDGCHETMLHRASLFDHHELADYLISVGADINKIDSEGRSPLILATASASWNIVNLLLSKGAQVDIKDNFGRNFLHLTVQQPYGLKNLRPEFMQMQQIKELVMDEDNDGCTPLHYACRQGGPGSVNNLLGFNVSIHSKSKDKKSPLHFAASYGRINTCQRLLQDISDTRLLNEGDLHGMTPLHLAAKNGHDKVVQLLLKKGALFLSDHNGWTALHHASMGGYTQTMKVILDTNLKCTDRLDEDGNTALHFAAREGHAKAVALLLSHNADIVLNKQQASFLHLALHNKRKEVVLTIIRSKRWDECLKIFSHNSPGNKCPITEMIEYLPECMKVLLDFCMLHSTEDKSCRDYYIEYNFKYLQCPLEFTKKTPTQDVIYEPLTALNAMVQNNRIELLNHPVCKEYLLMKWLAYGFRAHMMNLGSYCLGLIPMTILVVNIKPGMAFNSTGIINETSDHSEILDTTNSYLIKTCMILVFLSSIFGSCKEAGQIFQQKRNYFMDISNVLEWIIYTTGIIFVLPLFVEIPAHLQWQCGAIAVYFYWMNFLLYLQRFENCGIFIVMLEVILKTLLRSTVVFIFLLLAFGLSFYILLNLQDPFSSPLLSIIQTFSMMLGDINYRESFLEPYLRNELAHPVLSFAQLVSFTIFVPIVLMNLLIGLAVGDIAEVQKHASLKRIAMQVELHTSLEKKLPLWFLRKVDQKSTIVYPNKPRSGGMLFHIFCFLFCTGEIRQEIPNADKSLEMEILKQKYRLKDLTFLLEKQHELIKLIIQKMEIISETEDDDSHCSFQDRFKKEQMEQRNSRWNTVLRAVKAKTHHLEP
[6]; transfected HEK cells
  GCaMP6f peak amplitude upon ultrasound stimulation, variant versus full-length hsTRPA1: complete loss of ultrasound sensitivity
[7]
  GCaMP6f peak amplitude upon treatment with AITC, variant versus full-length hsTRPA1: without affecting responsiveness to AITC

B2: human-TRPV1: human TRPV1 channel expressed in HEK cells (protein, UniProt Q8NER1 1-839, looked up)
Transient receptor potential …: MKKWSSTDLGAAADPLQKDTCPDPLDGDPNSRPPPAKPQLSTAKSRTRLFGKGDSEEAFPVDCPHEEGELDSCPTITVSPVITIQRPGDGPTGARLLSQDSVAASTEKTLRLYDRRSIFEAVAQNNCQDLESLLLFLQKSKKHLTDNEFKDPETGKTCLLKAMLNLHDGQNTTIPLLLEIARQTDSLKELVNASYTDSYYKGQTALHIAIERRNMALVTLLVENGADVQAAAHGDFFKKTKGRPGFYFGELPLSLAACTNQLGIVKFLLQNSWQTADISARDSVGNTVLHALVEVADNTADNTKFVTSMYNEILMLGAKLHPTLKLEELTNKKGMTPLALAAGTGKIGVLAYILQREIQEPECRHLSRKFTEWAYGPVHSSLYDLSCIDTCEKNSVLEVIAYSSSETPNRHDMLLVEPLNRLLQDKWDRFVKRIFYFNFLVYCLYMIIFTMAAYYRPVDGLPPFKMEKTGDYFRVTGEILSVLGGVYFFFRGIQYFLQRRPSMKTLFVDSYSEMLFFLQSLFMLATVVLYFSHLKEYVASMVFSLALGWTNMLYYTRGFQQMGIYAVMIEKMILRDLCRFMFVYIVFLFGFSTAVVTLIEDGKNDSLPSESTSHRWRGPACRPPDSSYNSLYSTCLELFKFTIGMGDLEFTENYDFKAVFIILLLAYVILTYILLLNMLIALMGETVNKIAQESKNIWKLQRAITILDTEKSFLKCMRKAFRSGKLLQVGYTPDGKDDYRWCFRVDEVNWTTWNTNVGIINEDPGNCEGVKRTLSFSLRSSRVSGRHWKNFALVPLLREASARDRQSAQPEEVYLRQFSGSLKPEDAEVFKSPAASGEK
[6]
  Response to ultrasound stimulation (cells activated, GCaMP6f): not
